Laboratory results published in the supplement of paper PMC10307832.

How the values were obtained:
Assay in all cases: relative viability (nuclei count vs DMSO), 5 days (fraction); higher = more cells survive
[1] = compound: Cc1ccc(NC(=O)c2ccc(CN3CCN(C)CC3)cc2)cc1Nc1nc(-c2cccnc2)cs1 [Masitinib] + NC(=O)Nc1cc(-c2cccc(F)c2)sc1C(=O)N[C@H]1CCCNC1 [AZD7762] (partner 0.2 µM)
Procedure, shortened: (§1)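 One day after seeding in 1536-well plates, lung cancer cell lines were dosed by pin tool. Dosing was either single-drug or a fixed anchor-drug dose plus five library-drug doses (not always all listed) in √10 steps. After 5 days, nuclei were stained in one fix-and-stain step and counted on 4× images, and relative viability is the nuclei count of treated wells over that of vehicle wells, given as the median of duplicate plates.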

[2] = compound: CC1=CC(=CC=C1)NC2=NC(=CS2)C3=CC=NC=C3 + CCNC(=O)c1noc(-c2cc(C(C)C)c(O)cc2O)c1-c1ccc(CN2CCOCC2)cc1 [Luminespib] (partner 0.01 µM)
Procedure, shortened: as §1

[3] = compound: Cc1ccc(NC(=O)c2ccc(CN3CCN(C)CC3)cc2)cc1Nc1nc(-c2cccnc2)cs1 [Masitinib] + CS(=O)(=O)N1CCN(Cc2cc3nc(-c4cccc5[nH]ncc45)nc(N4CCOCC4)c3s2)CC1 [Pictilisib] (partner 1 µM)
Procedure, shortened: as §1

[4] = compound: CC1=CC(=CC=C1)NC2=NC(=CS2)C3=CC=NC=C3 + O=C(c1cc(Cc2n[nH]c(=O)c3ccccc23)ccc1F)N1CCN(C(=O)C2CC2)CC1 [Olaparib] (partner 8 µM)
Procedure, shortened: as §1

Cell Line | relative viability ([1]; first compound 0.01 µM) | relative viability ([1]; first compound 0.03162 µM) | relative viability ([1]; first compound 0.1 µM) | relative viability ([1]; first compound 0.3162 µM) | relative viability ([1]; first compound 1 µM) | relative viability ([2]; first compound 0.08 µM) | relative viability ([2]; first compound 0.253 µM) | relative viability ([2]; first compound 0.8 µM) | relative viability ([2]; first compound 2.53 µM) | relative viability ([2]; first compound 8 µM) | relative viability ([3]; first compound 0.01 µM) | relative viability ([3]; first compound 0.03162 µM) | relative viability ([3]; first compound 0.1 µM) | relative viability ([3]; first compound 0.3162 µM) | relative viability ([3]; first compound 1 µM) | relative viability ([4]; first compound 0.08 µM) | relative viability ([4]; first compound 0.253 µM) | relative viability ([4]; first compound 0.8 µM) | relative viability ([4]; first compound 2.53 µM) | relative viability ([4]; first compound 8 µM)
LXF-289 | 0.996 | 1.18 | 1.18 | 1.14 | 1.02 | 0.655 | 0.649 | 0.573 | 0.646 | 0.69 | 0.729 | 0.836 | 0.792 | 0.846 | 0.761 | 1.02 | 0.994 | 1.04 | 1.05 | 0.927
HCC-827 | 0.224 | 0.198 | 0.192 | 0.165 | 0.213 | 0.618 | 0.453 | 0.649 | 0.89 | 0.726 | 0.998 | 0.918 | 0.977 | 0.921 | 0.942 | 0.639 | 0.635 | 0.661 | 0.717 | 0.654
LK-2 | 0.4 | 0.346 | 0.692 | 0.525 | 0.302 | – | 0.161 | 0.207 | – | 0.183 | 0.595 | 0.656 | 0.671 | 0.569 | 0.641 | 0.665 | 0.762 | 0.903 | 0.824 | 1.09
BEN | 0.849 | 0.64 | 0.882 | 0.607 | 0.77 | 0.424 | 0.174 | 0.488 | 0.267 | 0.356 | 0.638 | 0.51 | 0.71 | 0.555 | 0.627 | 0.928 | 1.15 | 1.1 | 0.975 | 1.09
NCI-H2347 | 0.853 | 0.733 | 0.675 | 0.647 | 0.73 | 0.409 | 0.248 | – | 0.555 | 0.232 | 0.742 | 0.646 | 0.668 | 0.825 | 0.685 | 0.47 | 0.536 | 0.538 | 0.568 | 0.48
NCI-H1395 | 0.379 | 0.416 | 0.392 | 0.405 | 0.378 | 0.597 | 0.72 | 0.688 | 0.643 | 0.524 | 0.695 | 0.577 | 0.645 | 0.565 | 0.58 | 0.439 | – | 0.478 | 0.46 | 0.43
201T | 0.516 | 0.7 | 0.528 | 0.64 | 0.573 | 1.08 | 0.993 | 1 | 0.95 | 0.849 | 0.642 | 0.623 | 0.646 | 0.556 | 0.639 | 0.853 | 0.845 | 0.788 | 0.826 | 0.757
NCI-H358 | 0.524 | 0.491 | 0.548 | 0.509 | 0.414 | 0.286 | 0.605 | 0.305 | 0.436 | 0.231 | 0.328 | 0.319 | 0.34 | 0.394 | 0.296 | 0.547 | 0.519 | 0.521 | 0.5 | 0.521
